For 2 molecules, IC50 results are on record in ChEMBL document CHEMBL4152253, “New developments in non-quinolone-based antibiotics for the inhibiton of bacterial gyrase and topoisomerase IV” (Eur J Med Chem, 2018).

Each structure is given as a SMILES string. pIC50: −log10 of the molar value.

For one test, the target named is DNA gyrase (Staphylococcus aureus, UniProt P0A0K8+P20831). The test can be described thus: Inhibition of Staphylococcus aureus DNA gyrase. It counts as protein-complex assay.
Another test deals with DNA gyrase subunit B (Staphylococcus aureus, UniProt P0A0K8). Kind of test: Inhibition of Staphylococcus aureus GyrB.
Sequence of DNA gyrase subunit B (P0A0K8 whole entry): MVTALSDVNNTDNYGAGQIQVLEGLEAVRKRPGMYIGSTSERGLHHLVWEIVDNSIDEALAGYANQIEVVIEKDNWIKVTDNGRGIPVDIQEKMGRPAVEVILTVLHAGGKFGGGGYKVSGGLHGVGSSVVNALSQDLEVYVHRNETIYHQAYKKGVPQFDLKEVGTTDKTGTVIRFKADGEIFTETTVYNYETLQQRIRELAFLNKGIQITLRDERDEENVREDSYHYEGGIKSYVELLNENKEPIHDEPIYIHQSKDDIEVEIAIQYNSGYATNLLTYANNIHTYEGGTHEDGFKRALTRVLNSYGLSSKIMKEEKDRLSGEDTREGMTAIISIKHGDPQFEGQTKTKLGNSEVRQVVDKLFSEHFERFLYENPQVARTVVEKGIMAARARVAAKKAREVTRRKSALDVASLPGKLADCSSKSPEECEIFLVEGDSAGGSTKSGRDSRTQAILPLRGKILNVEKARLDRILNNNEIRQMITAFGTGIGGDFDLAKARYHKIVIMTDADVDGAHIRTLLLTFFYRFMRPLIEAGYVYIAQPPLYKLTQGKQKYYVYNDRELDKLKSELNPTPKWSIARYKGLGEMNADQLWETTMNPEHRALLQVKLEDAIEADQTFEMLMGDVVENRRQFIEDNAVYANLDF

Sequence of DNA gyrase (P0A0K8 whole entry): as above
Sequence of DNA gyrase (P20831 whole entry): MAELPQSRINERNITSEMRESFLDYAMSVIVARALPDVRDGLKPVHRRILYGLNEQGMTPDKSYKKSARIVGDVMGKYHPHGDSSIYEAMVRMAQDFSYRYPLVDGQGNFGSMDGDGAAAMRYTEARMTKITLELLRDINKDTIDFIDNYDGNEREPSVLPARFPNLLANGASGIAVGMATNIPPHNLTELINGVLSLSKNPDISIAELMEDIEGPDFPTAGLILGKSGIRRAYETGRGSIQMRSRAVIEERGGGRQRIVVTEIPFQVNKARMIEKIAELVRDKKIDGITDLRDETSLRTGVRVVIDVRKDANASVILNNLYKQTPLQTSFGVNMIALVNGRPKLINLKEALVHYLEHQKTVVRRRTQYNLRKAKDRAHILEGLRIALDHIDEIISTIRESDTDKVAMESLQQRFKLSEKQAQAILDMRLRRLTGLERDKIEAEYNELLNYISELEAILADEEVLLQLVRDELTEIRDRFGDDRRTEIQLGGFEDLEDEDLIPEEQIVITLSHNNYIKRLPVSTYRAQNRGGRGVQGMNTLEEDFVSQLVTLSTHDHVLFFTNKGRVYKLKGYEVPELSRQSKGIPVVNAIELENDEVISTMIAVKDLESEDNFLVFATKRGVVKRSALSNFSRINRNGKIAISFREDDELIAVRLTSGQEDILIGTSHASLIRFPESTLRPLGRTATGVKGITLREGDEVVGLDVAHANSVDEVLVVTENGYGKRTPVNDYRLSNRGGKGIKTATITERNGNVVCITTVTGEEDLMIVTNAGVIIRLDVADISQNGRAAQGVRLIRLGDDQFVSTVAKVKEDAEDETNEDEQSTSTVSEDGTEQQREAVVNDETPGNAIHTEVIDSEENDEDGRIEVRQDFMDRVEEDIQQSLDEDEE

The term pIC50 denotes −log10 of the IC50, conventionally taken in molar units. A high value points to a low IC50. As to `Cc1occc1C(=O)NNC(=S)NC(=O)c1ccccc1`, on DNA gyrase, the negative logarithm of the IC50 (pIC50) was 4.82.
As to `C=C1CC[C@@H](O[C@H]2C[C@@](O)([C@H](C)NC(=O)c3[nH]c(C)c(Cl)c3Cl)[C@H](O)[C@@H](C)O2)[C@@H]2C=C[C@H](C)C(/C(O)=C3\C(=O)[C@H](C(C)C)N([C@H]4O[C@H](C)[C@H](OC(N)=O)[C@H](OC(C)=O)[C@@H]4OC)C3=O)[C@@H]12` (some centres not stated) [KIBDELOMYCIN], on DNA gyrase subunit B, the negative-log IC50 (pIC50) is 8.05.
